We go through 72 molecules from patent publication US20070037831A1, “Methods of using PDE 5 inhibitors for the treatment of congestive heart failure” (priority 2004, published 2007).

A value given as a limit tells only on which side of the number the result lay.

The assay concerns the target PDE V (Homo sapiens, UniProt O76074). In words: PDE V inhibition (PDE V IC50). The class given is biochemical.
Consider `CCn1c(=O)c2c(nc(N[C@@H]3CCC[C@H]3O)n2Cc2ccc(S(N)(=O)=O)c(Cl)c2)n(CC)c1=O` [Compound 181], for which the half-maximal inhibitory concentration (IC50) lay within 15 to 100 nM.

With `CCn1c(=O)c2c(nc(NC3CCOCC3)n2Cc2ccc(S(N)(=O)=O)c(Cl)c2)n(CC)c1=O` [Compound 191], the IC50 was not above 5 nM.

`COc1ccc(Cn2c(NC3(CO)CC=CC3)nc3c2c(=O)n(C)c(=O)n3C)cc1` [Compound 34]: the half-inhibitory concentration (IC50) lay in the range of 10 to 15 nM.

In the case of `CCn1c(=O)c2c(nc(N[C@@H]3CCC[C@H]3O)n2Cc2ccc(S(N)(=O)=O)cc2)n(CC)c1=O` [Compound 126], the concentration for half-maximal inhibition (IC50) lay within 15 to 100 nM.

Take `Cc1ccc(Cn2c(NC3CCCCC3)nc3c2c(=O)n(C)c(=O)n3C)cc1` [Compound 132]: the IC50 lay within 5 to 10 nM.

In the case of `CCn1c(=O)c2c(nc(N[C@@H]3CCC[C@H]3O)n2Cc2ccc(OC)c(Br)c2)n(CCO)c1=O` [Compound 114], the IC50 was not above 5 nM.

In turn, `CCn1c(=O)[nH]c2nc(NC3CCCC3)n(Cc3ccc(OC)cc3)c2c1=O` [Compound 93] gave an IC50 of 10 to 15 nM.

As to `CCCn1c(=O)n(CC)c(=O)c2c1nc(NC1CCCCC1)n2Cc1ccc(OC)c(C)c1` [Compound 176], the half-maximal inhibitory concentration (IC50) was in the range of 15 to 100 nM.

As for `CCn1c(=O)c2c(nc(NC3(CO)CC=CC3)n2Cc2ccccc2)n(CC(C)C)c1=O` [Compound 57], the IC50 was 15 to 100 nM.

The molecule `COc1ccc(Cn2c(NC3(CO)CCCC3)nc3c2c(=O)n(C)c(=O)n3CC(C)C)cc1` [Compound 18] registered an IC50 of 15 to 100 nM.

With `COc1ccc(Cn2c(NC3CCCC3)nc3c2c(=O)n(C)c(=O)n3C)cc1` [Compound 32], the IC50 lay within 15 to 100 nM.

`COc1ccc(Cn2c(=O)c3c(nc(NC4(CO)CC=CC4)n3Cc3ccc(OC)cc3)n(C)c2=O)cc1` [Compound 67]: the IC50 was not above 5 nM.

As to `CCn1c(=O)c2c(nc(NC3CCCCC3)n2Cc2ccccc2F)n(CC)c1=O` [Compound 165], the IC50 lay in the range of 15 to 100 nM.

As to `Cn1c(=O)c2c(nc(NC3CCCC3)n2Cc2ccc(O)cc2)n(C)c1=O` [Compound 36], the half-maximal inhibitory concentration (IC50) lay within 5 to 10 nM.

With `Cn1c(=O)c2c(nc(NC3CCC3)n2Cc2ccc(O)cc2)n(C)c1=O` [Compound 66], the IC50 is 5 to 10 nM.

Regarding `CCCn1c(=O)n(CC)c(=O)c2c1nc(NC1CCCCC1)n2Cc1ccc2c(c1)OCO2` [Compound 175], the IC50 was in the range of 5 to 10 nM.

With `CCn1c(=O)c2c(nc(NC3CCCCC3)n2Cc2ccc(S(N)(=O)=O)c(Br)c2)n(CCO)c1=O` [Compound 184], the IC50 was 15 to 100 nM.

As to `CCn1c(=O)c2c(nc(NC3CCCCC3)n2Cc2ccc(C(F)(F)F)cc2)n(CC(C)C)c1=O` [Compound 96], the IC50 was 15 to 100 nM.

Regarding `CCn1c(=O)c2c(nc(NC3CCCCC3)n2Cc2ccc(S(N)(=O)=O)c(Cl)c2)n(CC)c1=O` [Compound 179], the IC50 is not above 5 nM.

Turning to `Cc1cccc(Cn2c(NC3CCCCC3)nc3c2c(=O)n(C)c(=O)n3C)c1` [Compound 131], the IC50 was 15 to 100 nM.

In turn, `COc1ccc(Cn2c(NC3CCCC3)nc3c2c(=O)n(C)c(=O)n3CC(C)C)cc1` [Compound 30] yielded a concentration for half-maximal inhibition (IC50) of 15 to 100 nM.

On to `CCn1c(=O)c2c(nc(NC3CCCCC3)n2Cc2ccc(S(N)(=O)=O)cc2)n(CCO)c1=O` [Compound 182], for which the concentration for half-maximal inhibition (IC50) was in the range of 15 to 100 nM.

For the molecule `COc1ccc(Cn2c(=O)c3c(nc(NC4CCCCC4)n3Cc3ccc(OC)cc3)n(C)c2=O)cc1` [Compound 21], the IC50 fell in the range of 5 to 10 nM.

`CCn1c(=O)c2c(nc(NC3CCCCC3)n2Cc2ccc(O)c(C)c2)n(CCO)c1=O` [Compound 112] displayed an IC50 of 10 to 15 nM.

`COc1ccc(Cn2c(N[C@@H]3CCc4ccccc43)nc3c2c(=O)n(C)c(=O)n3C)cc1` [Compound 85] had a half-maximal inhibitory concentration (IC50) of 15 to 100 nM.

For `CCn1c(=O)c2c(nc(NC3(CO)CCCC3)n2Cc2ccc(OC)cc2)n(CC(C)C)c1=O` [Compound 41], the IC50 was in the range of 15 to 100 nM.

As for `CCn1c(=O)c2c(nc(NC3CCCCC3)n2Cc2ccccc2)n(CC(C)C)c1=O` [Compound 56], the half-maximal inhibitory concentration (IC50) fell in the range of 15 to 100 nM.

For `CCn1c(=O)c2c(nc(N[C@H]3CC[C@H](O)CC3)n2Cc2ccc(OC)c(Br)c2)n(CC)c1=O` [Compound 125], the IC50 lay within 10 to 15 nM.

`CCn1c(=O)c2c(nc(NC3CCSCC3)n2Cc2ccc(OC)c(Cl)c2)n(CC)c1=O` [Compound 197]: the half-maximal inhibitory concentration (IC50) is not above 5 nM.

Molecule `COc1ccc(Cn2c(NC3CCCCC3)nc3c2c(=O)n(C)c(=O)n3C)cc1C` [Compound 144] showed a 50% inhibitory concentration (IC50) of 10 to 15 nM.

In turn, `CCn1c(=O)c2c(nc(NC3CCC(F)(F)CC3)n2Cc2ccc(OC)c(Br)c2)n(CC)c1=O` [Compound 199] gave an IC50 of 5 to 10 nM.

As for `CCn1c(=O)c2c(nc(NC3CCCC3)n2Cc2ccc(OC)cc2)n(CC(C)C)c1=O` [Compound 38], the IC50 fell in the range of 15 to 100 nM.

On to `CCn1c(=O)c2c(nc(NC3CCCCC3)n2Cc2ccc(C(=O)OC)cc2)n(CC)c1=O` [Compound 99], for which the IC50 was 5 to 10 nM.

`CCn1c(=O)c2c(nc(N[C@@H]3CCC[C@H]3O)n2Cc2ccc(OC)c(C)c2)n(CCO)c1=O` [Compound 111] came in with an IC50 of 10 to 15 nM.

The molecule `Cn1c(=O)c2c(nc(NC3CCCCC3)n2Cc2ccc3c(c2)OCO3)n(C)c1=O` [Compound 142] displayed an IC50 not above 5 nM.

In the case of `CCn1c(=O)[nH]c2nc(NC3CCCCC3)n(Cc3ccc(OC)cc3)c2c1=O` [Compound 92], the IC50 was 15 to 100 nM.

Take `CCn1c(=O)c2c(nc(NC3CCCCC3)n2Cc2ccc(C(=O)O)cc2)n(CC)c1=O` [Compound 98]: the IC50 was 15 to 100 nM.

Regarding `CCCn1c(=O)n(CC)c(=O)c2c1nc(NC1CCCCC1)n2Cc1ccc(S(C)(=O)=O)cc1` [Compound 121], the concentration for half-maximal inhibition (IC50) was 15 to 100 nM.

In the case of `CCn1c(=O)c2c(nc(NC3CCCCC3)n2Cc2ccc(OC)cc2)n(CC(C)C)c1=O` [Compound 39], the half-inhibitory concentration (IC50) lay in the range of 10 to 15 nM.

`CCn1c(=O)c2c(nc(N[C@@H]3CCC[C@H]3O)n2Cc2ccc(O)c(C)c2)n(CCO)c1=O` [Compound 113] returned an IC50 of 15 to 100 nM.

In turn, `COc1ccc(Cn2c(NC3CCCCC3)nc3c2c(=O)[nH]c(=O)n3C)cc1` [Compound 70] showed an IC50 of 15 to 100 nM.

For `CCn1c(=O)c2c(nc(NC3CCCC3)n2Cc2ccc(O)cc2)n(CC)c1=O` [Compound 63], the 50% inhibitory concentration (IC50) is not above 5 nM.

In turn, `Cn1c(=O)c2c(nc(NC3CCCC3)n2Cc2ccccc2)n(C)c1=O` [Compound 15] came in with a half-maximal inhibitory concentration (IC50) of 15 to 100 nM.

In turn, `COc1ccc(Cn2c(NC3(CO)CCCC3)nc3c2c(=O)n(C)c(=O)n3C)cc1` [Compound 13] had an IC50 of 15 to 100 nM.

With `Cn1c(=O)c2c(nc(NC3CCCCC3)n2Cc2ccccc2)n(C)c1=O` [Compound 16], the IC50 lay within 15 to 100 nM.

Molecule `CCn1c(=O)c2c(nc(NC3CCCCC3)n2Cc2ccc(O)cc2)n(CC)c1=O` [Compound 64] returned an IC50 not above 5 nM.

Turning to `CCn1c(=O)c2c(nc(NC3CCCCC3)n2Cc2ccc(OC)c(C)c2)n(CC)c1=O` [Compound 166], the IC50 was 15 to 100 nM.

Molecule `CCn1c(=O)[nH]c2nc(NC3CCCC3)n(Cc3ccc(O)cc3)c2c1=O` [Compound 95] yielded an IC50 of 5 to 10 nM.

In the case of `CCCn1c(=O)n(CC)c(=O)c2c1nc(NC1CCCCC1)n2Cc1ccc(O)c(C)c1` [Compound 178], the 50% inhibitory concentration (IC50) was not above 5 nM.

For the molecule `COc1ccc(Cn2c(=O)c3c(nc(NC4CCCC4)n3Cc3ccc(OC)cc3)n(C)c2=O)cc1` [Compound 22], the IC50 fell in the range of 5 to 10 nM.

The molecule `Cn1c(=O)c2c(nc(NC3CCCCCC3)n2Cc2ccc(O)cc2)n(C)c1=O` [Compound 69] returned a 50% inhibitory concentration (IC50) of 15 to 100 nM.

The molecule `CCn1c(=O)c2c(nc(NC3CCCCC3)n2Cc2ccccc2)n(CC)c1=O` [Compound 29] came in with an IC50 of 10 to 15 nM.

`CCn1c(=O)c2c(nc(NC3CCS(=O)(=O)CC3)n2Cc2ccc(OC)c(Cl)c2)n(CC)c1=O` [Compound 193] came in with an IC50 of 15 to 100 nM.

Consider `Cn1c(=O)c2c(nc(NC3CCCCC3)n2Cc2ccc(O)c(Cl)c2)n(C)c1=O` [Compound 161], for which the half-inhibitory concentration (IC50) fell in the range of 10 to 15 nM.

Molecule `Cn1c(=O)[nH]c(=O)c2c1nc(NC1CCCC1)n2Cc1ccc(O)cc1` [Compound 68] returned a concentration for half-maximal inhibition (IC50) of 5 to 10 nM.

The molecule `COc1ccc(Cn2c(NC3CCCCC3)nc3c2c(=O)n(C)c(=O)n3C)cc1Cl` [Compound 159] registered an IC50 of 5 to 10 nM.

Take `CCn1c(=O)c2c(nc(N[C@@H]3CCCC[C@H]3O)n2Cc2ccc(OC)c(Br)c2)n(CCO)c1=O` [Compound 185]: the IC50 fell in the range of 15 to 100 nM.

The molecule `COc1ccc(Cn2c(NC3CCCCC3)nc3c2c(=O)n(C)c(=O)n3CC(C)C)cc1` [Compound 31] showed a concentration for half-maximal inhibition (IC50) of 15 to 100 nM.

`COc1ccc(Cn2c(N[C@@H]3CCC[C@@H]3O)nc3c2c(=O)n(C)c(=O)n3CC(C)C)cc1` [Compound 17] returned a half-inhibitory concentration (IC50) of 15 to 100 nM.

`CCn1c(=O)c2c(nc(NC3CCCCC3)n2Cc2ccc(S(N)(=O)=O)c(Br)c2)n(CC)c1=O` [Compound 180] gave a 50% inhibitory concentration (IC50) of 5 to 10 nM.

Molecule `Cn1c(=O)c2c(nc(NC3CCCCC3)n2Cc2ccc(F)cc2)n(C)c1=O` [Compound 138] had an IC50 of 15 to 100 nM.

Molecule `Cn1c(=O)c2c(nc(NC3CCCCC3)n2Cc2cc3c(cc2Cl)OCO3)n(C)c1=O` [Compound 160] came in with a half-maximal inhibitory concentration (IC50) of 10 to 15 nM.

For `CCn1c(=O)c2c(nc(NC3CCCC3)n2Cc2ccc(O)cc2)n(CC(C)C)c1=O` [Compound 59], the IC50 is 5 to 10 nM.

Molecule `CCCn1c(=O)n(CC)c(=O)c2c1nc(NC1CCCCC1)n2Cc1cccc(O)c1` [Compound 177] yielded an IC50 not above 5 nM.

`CCn1c(=O)c2c(nc(NC3CCCC3O)n2Cc2ccc(OC)cc2)n(CC(C)C)c1=O` (stereo not drawn) [Compound 40]: the IC50 lay in the range of 10 to 15 nM.

`CCn1c(=O)c2c(nc(NC3CCCC3)n2Cc2ccccc2)n(CC(C)C)c1=O` [Compound 55] gave an IC50 of 15 to 100 nM.

The molecule `CCn1c(=O)c2c(nc(NC3(CO)CC=CC3)n2Cc2ccc(OC)cc2)n(C)c1=O` [Compound 25] gave an IC50 of 15 to 100 nM.

For the molecule `CCn1c(=O)c2c(nc(NC3CCSCC3)n2Cc2ccc(OC)c(Br)c2)n(CC)c1=O` [Compound 198], the IC50 is not above 5 nM.

Take `CCn1c(=O)c2c(nc(NC3CCCCC3)n2Cc2ccc(O)cc2)n(C)c1=O` [Compound 78]: the IC50 lay in the range of 5 to 10 nM.

On to `Cn1c(=O)c2c(nc(NC3CCCCC3)n2Cc2cccc(F)c2)n(C)c1=O` [Compound 137], for which the 50% inhibitory concentration (IC50) was in the range of 15 to 100 nM.

With `CCn1c(=O)c2c(nc(NC3CCOCC3)n2Cc2ccc(S(N)(=O)=O)c(Br)c2)n(CC)c1=O` [Compound 190], the IC50 is 5 to 10 nM.

`CCn1c(=O)c2c(nc(NC3CCCCC3)n2Cc2ccc(OC)c(C)c2)n(CCO)c1=O` [Compound 110] displayed an IC50 of 5 to 10 nM.
